{"source": "paper PMC4472571", "about": "(Journal of neurochemistry, 2015)", "test_in_all_cases": "two-electrode voltage clamp, CFTR current in oocytes", "type_in_all_cases": "cell-based", "key": {"MOR263-3 [1]": {"biological_target": "T1, MOR263-3 (Mus musculus, UniProt Q8VFQ2)", "T1 sequence (Q8VFQ2 1-330)": "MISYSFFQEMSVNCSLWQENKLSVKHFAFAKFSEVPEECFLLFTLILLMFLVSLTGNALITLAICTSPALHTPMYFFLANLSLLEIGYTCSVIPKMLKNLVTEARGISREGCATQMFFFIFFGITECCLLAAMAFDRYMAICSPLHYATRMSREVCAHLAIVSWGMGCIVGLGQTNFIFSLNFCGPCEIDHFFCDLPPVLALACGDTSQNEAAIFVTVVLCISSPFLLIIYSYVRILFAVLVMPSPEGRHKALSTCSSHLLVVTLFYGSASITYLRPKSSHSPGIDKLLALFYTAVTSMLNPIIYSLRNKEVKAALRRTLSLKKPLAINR"}, "rhoMOR263-2": {"biological_target": "T2, rhoMOR263-2 (Mus musculus, UniProt Q9EPG4)", "T2 sequence (Q9EPG4 1-317)": "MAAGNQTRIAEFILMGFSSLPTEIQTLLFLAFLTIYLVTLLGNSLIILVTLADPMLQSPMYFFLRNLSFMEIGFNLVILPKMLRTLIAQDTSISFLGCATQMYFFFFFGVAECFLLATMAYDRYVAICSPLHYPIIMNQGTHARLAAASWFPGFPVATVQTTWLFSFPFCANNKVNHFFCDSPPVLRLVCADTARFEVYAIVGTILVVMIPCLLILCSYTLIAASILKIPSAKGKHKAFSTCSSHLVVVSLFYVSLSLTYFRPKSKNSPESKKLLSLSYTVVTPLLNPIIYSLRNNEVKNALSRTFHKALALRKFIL", "conditions": "agonist; 30 μM"}, "MOR263-3 [2]": {"biological_target": "T1, MOR263-3", "conditions": "agonist; 30 μM"}}}
{"smiles": "CCC/C=C/C=C/C=O", "note": "[trans,trans-2,4-octadienal]", "values": [{"measurement": "EC50", "setting": "MOR263-3 [1]", "value": "21 ± 6", "unit": "µM"}]}
{"smiles": "CCCCCCC/C=C/C=O", "note": "[trans-2-decenal]", "values": [{"measurement": "two-electrode voltage clamp, CFTR current in oocytes", "setting": "rhoMOR263-2", "value": "MOR263-2 responded well to trans,trans-2,4-decadienal, trans,trans-2,4-undecadienal, trans-2-decenal"}]}
{"smiles": "CCCCCC/C=C/C=C/C=O", "note": "[trans,trans-2,4-undecadienal]", "values": [{"measurement": "two-electrode voltage clamp, CFTR current in oocytes", "setting": "rhoMOR263-2", "value": "MOR263-2 responded well to trans,trans-2,4-decadienal, trans,trans-2,4-undecadienal"}]}
{"smiles": "CCCC/C=C/C=C/C=O", "note": "[trans,trans-2,4-nonadienal]", "values": [{"measurement": "two-electrode voltage clamp, CFTR current in oocytes", "setting": "MOR263-3 [2]", "value": "MOR263-3 responded well to trans,trans-2,4-nonadienal, trans,trans-2,4-decadienal"}]}
{"smiles": "CCCCC/C=C/C=O", "note": "[trans-2-octenal]", "values": [{"measurement": "two-electrode voltage clamp, CFTR current in oocytes", "setting": "MOR263-3 [2]", "value": "MOR263-3 responded well to trans,trans-2,4-nonadienal, trans,trans-2,4-decadienal, trans-2-octenal"}]}
{"smiles": "CCCCC/C=C/C=C/C=O", "note": "[trans,trans-2,4-decadienal]", "values": [{"measurement": "two-electrode voltage clamp, CFTR current in oocytes", "setting": "MOR263-3 [2]", "value": "MOR263-3 responded well to trans,trans-2,4-nonadienal, trans,trans-2,4-decadienal"}, {"measurement": "two-electrode voltage clamp, CFTR current in oocytes", "setting": "rhoMOR263-2", "value": "MOR263-2 responded well to trans,trans-2,4-decadienal"}]}
